Test results: patent publication US10253032B2, “Spiro-lactam NMDA receptor modulators and uses thereof” (Aptinyx Inc., priority 2013, dated 2019)

How the values were obtained:
[1] = system: LTP; experiment: LTP (long-term potentiation) augmentation; details: LTP Concentration 1 uM
[2] = target: T1, NMDA receptor glycine site, rat cortical membranes (Rattus norvegicus, UniProt P35439); experiment: [3H] MK-801 binding assay (MK-801 Glycine Site Binding Assay: Rat, Cortex); details: potentiation of [3H]MK-801 binding (5 nM), 50 μM glutamate, 15 min @25° C.
T1 construct: well washed rat cortical membranes (200 μg); from tissue; host or cells: rat cerebral cortex membranes
Method: Assays were conducted as described in Moskal et al. (Moskal, J. R., Kuo, A. G., Weiss, C., Wood, P. L., O'Connor Hanson, A., Kelso, S., Harris, R. B., Disterhoft, S. F., 2005. GLYX-13: a monoclonal antibody-derived peptide that acts as an N-methyl-D-aspartate receptor modulator. Neuropharmacology. 49, 1077-87) The potentiation of [^3H]MK-801 binding (5 nM; 22.5 Ci/mmol) to well washed rat cortical membranes (200 μg) was measured under non-equilibrium conditions (15 min @25° C.) in the presence of increasing concentrations of test compounds and 50 μM glutamate. Zero levels were determined in the absence of any glycine ligand and in the presence of 30 μM 5.7 DCKA. Maximal stimulation was measured in the presence of 1 mM glycine, and 50 μM glutamate was present in all samples. The facilitation of [^3H]MK-801 binding by tests compounds was calculated by using a 3 parameter log agonist vs. response equation (Graph pad Prism, USA) and potency (EC50, expressed in pM) and maximal activity (% maximal stimulation) were calculated for the test compound.

Which results are given for NC(=O)C(CO)N1CCCC12CNC2=O (centres unmarked) [Compound X]?
LTP: LTP Augmentation [1]: 75%; EC50 [2]: 2.43 nM
